For 31 compounds, IC50 results are on record in patent publication US20260317356A1, “SMALL MOLECULE MODULATORS OF OGG1” (AZKARRA THERAPEUTICS, INC., priority 2023, published 2026).

The assay concerns the target hOGG1 (Homo sapiens, UniProt O15527). In words: Biochemical fluorescence assay to measure enzymatic activity of hOGG1 (OGG1/APEX IC50). Also noted: Protein His-hOGG1 (12-323) was prepared; His (N); host or cells: E. coli. The note with it: 1 nM OGG1+2 nM APEX+6 nM dsDNA (8-oxo-dG substrate); pH 7.5; RT 40 min; read-out: OGG1/APEX IC50. Put shortly: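 His-hOGG1 (12-323, E. coli) at 1 nM with 2 nM hAPE1/APEX1, preincubated 20 min RT with compound. Then 6 nM 8-oxo-dG dsDNA substrate added, 40 min at RT in Tris pH 7.5, 100 mM KCl. TAMRA fluorescence (Ex520/Em600) converted to % inhibition vs controls; IC50 from 3-parameter fit of 10-point curve.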

Sequence of hOGG1 (O15527 12-323): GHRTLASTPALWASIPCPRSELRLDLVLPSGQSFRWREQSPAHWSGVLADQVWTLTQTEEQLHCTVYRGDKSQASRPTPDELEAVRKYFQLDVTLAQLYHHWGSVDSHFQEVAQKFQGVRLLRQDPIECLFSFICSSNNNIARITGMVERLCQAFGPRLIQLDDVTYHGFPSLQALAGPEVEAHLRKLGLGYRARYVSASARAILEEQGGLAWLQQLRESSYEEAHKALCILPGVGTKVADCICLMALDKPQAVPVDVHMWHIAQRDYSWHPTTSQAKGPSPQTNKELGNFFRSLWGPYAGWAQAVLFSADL

Regarding `COc1cc(NC(=O)[C@H]2CC[C@@H](N3Cc4c(Br)cc(NC(=O)CN(C)C)cc4C3=O)CC2)ccc1C` [Example 202, (1s,4s)-4-(4-bromo-6-(2-(dimethylamino)acetamido)-1-oxoisoindolin-2-yl)-N-(3-methoxy-4-methylphenyl)cyclohexanecarboxamide], the IC50 lay within 100 to 1000 nM.
With `COc1cc(NC(=O)[C@H]2CC[C@@H](N3Cc4c(C)cc(C5=CCNCC5)cc4C3=O)CC2)ccc1C` [Example 146, (1s,4s)-N-(3-Methoxy-4-methylphenyl)-4-(4-methyl-1-oxo-6-(1,2,3,6-tetrahydropyridin-4-yl)isoindolin-2-yl)cyclohexanecarboxamide], the IC50 is less than 100 nM.
For `COc1cc(NC(=O)[C@H]2CC[C@@H](N3Cc4c(C)cnc(CN)c4NC3=O)CC2)ccc1C` [Example 20, (1s,4s)-4-(8-(Aminomethyl)-5-methyl-2-oxo-1,2-dihydropyrido[3,4-d]pyrimidin-3(4H)-yl)-N-(3-methoxy-4-methylphenyl)cyclohexanecarboxamide] the value was less than 100 nM; for `O=C(Nc1ccc(I)cc1)N1CCC(N2Cc3c(Br)cccc3C2=O)CC1` [Example 182, 4-(4-Bromo-1-oxoisoindolin-2-yl)-N-(4-iodophenyl) piperidine-1-carboxamide], greater than 10000 nM; for `COc1cc(NC(=O)[C@H]2[C@@H]3C[C@H](N4Cc5c(Br)cccc5C4=O)C[C@@H]32)ccc1C` (single isomer, unassigned) [Example 268], 100 to 1000 nM.
Regarding `COc1cc(NC(=O)[C@H]2CC[C@@H](N3Cc4c(C)cc(OCC5(O)CNC5)cc4C3=O)CC2)ccc1C` [Example 138, (1s,4s)-4-(6-((3-Hydroxyazetidin-3-yl)methoxy)-4-methyl-1-oxoisoindolin-2-yl)-N-(3-methoxy-4-methylphenyl)cyclohexanecarboxamide], the IC50 is less than 100 nM.
Regarding `COc1cc(NC(=O)[C@H]2CC[C@@H](N3Cc4c(C)ccc(OCC5(C)COC5)c4NC3=O)CC2)ccc1C` [Example 23, (1s,4s)-N-(3-Methoxy-4-methylphenyl)-4-(5-methyl-8-((3-methyloxetan-3-yl)methoxy)-2-oxo-1,2-dihydroquinazolin-3(4H)-yl)cyclohexanecarboxamide], the IC50 lay in the range of 100 to 1000 nM.
For `Cc1cccc2c1CN([C@H]1CC[C@@H](C(=O)Nc3nc(C)c(C)s3)CC1)C2=O` [Example 240, (1s,4s)-N-(4,5-Dimethylthiazol-2-yl)-4-(4-methyl-1-oxoisoindolin-2-yl)cyclohexanecarboxamide] the value was greater than 10000 nM.
The figure for `Cc1cc(NC(=O)[C@H]2CC[C@@H](N3Cc4c(C)cccc4C3=O)CC2)ccc1Cl` [Example 225, (1s,4s)-N-(4-Chloro-3-methylphenyl)-4-(4-methyl-1-oxoisoindolin-2-yl)cyclohexanecarboxamide] is 100 to 1000 nM; for `COc1ccc(NC(=O)[C@H]2CC[C@@H](N3Cc4c(C)cccc4NC3=O)CC2)cc1C#N` [Example 86, (1s,4s)-N-(3-cyano-4-methoxyphenyl)-4-(5-methyl-2-oxo-1,2-dihydroquinazolin-3(4H)-yl)cyclohexanecarboxamide] it is less than 100 nM.
For `COc1cc(NC(=O)[C@H]2CC[C@@H](N3Cc4c(Br)cc(NCCCN(C)C)cc4C3=O)CC2)ccc1C` [Example 205, (1s,4s)-4-(4-Bromo-6-(3-(dimethylamino)propylamino)-1-oxoisoindolin-2-yl)-N-(3-methoxy-4-methylphenyl)cyclohexanecarboxamide] the value was less than 100 nM.
Consider `Cc1cccc2c1CN([C@H]1CC[C@@H](C(=O)Nc3cc4ccccc4[nH]3)CC1)C(=O)N2` [Example 112, (1s,4s)-N-(1H-indol-2-yl)-4-(5-methyl-2-oxo-1,2-dihydroquinazolin-3(4H)-yl)cyclohexanecarboxamide], for which the IC50 is less than 100 nM.
The figure for `COc1cc(NC(=O)N2CCC(N3Cc4c(Br)cccc4C3=O)CC2)ccc1C` [Example 181, 4-(4-Bromo-1-oxoisoindolin-2-yl)-N-(3-methoxy-4-methylphenyl)piperidine-1-carboxamide] is 1000 to 10000 nM.
For `COc1cc(NC(=O)[C@H]2CC[C@@H](N3Cc4c(C)ccc(Cl)c4C3=O)CC2)ccc1C` [Example 144, (1s,4s)-4-(7-Chloro-4-methyl-1-oxoisoindolin-2-yl)-N-(3-methoxy-4-methylphenyl)cyclohexanecarboxamide] the value was less than 100 nM.
Consider `COc1cc(NC(=O)[C@H]2CC[C@@H](N3Cc4c(cccc4C4CCC4)C3=O)CC2)ccc1C` [Example 152, (1s,4s)-4-(4-Cyclobutyl-1-oxoisoindolin-2-yl)-N-(3-methoxy-4-methylphenyl)cyclohexanecarboxamide], for which the IC50 is greater than 10000 nM.
With `COc1cc(NC(=O)[C@H]2CC[C@@H](N3Cc4c(F)cccc4NC3=O)CC2)ccc1C` [Example 75, (1s,4s)-4-(5-fluoro-2-oxo-1,2-dihydroquinazolin-3(4H)-yl)-N-(3-methoxy-4-methylphenyl)cyclohexanecarboxamide], the IC50 lay in the range of 100 to 1000 nM.
Regarding `COc1cc(NC(=O)[C@H]2CC[C@@H](N3Cc4c(C)ccc(CNS(C)(=O)=O)c4NC3=O)CC2)ccc1C` [Example 24, (1s,4s)-N-(3-Methoxy-4-methylphenyl)-4-(5-methyl-8-(methylsulfonamidomethyl)-2-oxo-1,2-dihydroquinazolin-3(4H)-yl)cyclohexanecarboxamide], the IC50 was less than 100 nM.
The figure for `Cc1ccc(NC(=O)[C@H]2CC[C@@H](N3Cc4c(C)cccc4C3=O)CC2)cc1O` [Example 222, (1s,4s)-N-(3-Hydroxy-4-methylphenyl)-4-(4-methyl-1-oxoisoindolin-2-yl)cyclohexanecarboxamide] is 1000 to 10000 nM; for `COc1cc(NC(=O)[C@H]2CC[C@@H](N3Cc4c(Br)cncc4NC3=O)CC2)ccc1C` [Example 91, (1s,4s)-4-(5-bromo-2-oxo-1,2-dihydropyrido[3,4-d]pyrimidin-3(4H)-yl)-N-(3-methoxy-4-methylphenyl)cyclohexanecarboxamide] it is less than 100 nM; for `COc1cc(NC(=O)[C@H]2CC[C@@H](N3Cc4c(C)ccc(O)c4NC3=O)CC2)ccc1C` [Example 61, (1s,4s)-4-(8-hydroxy-5-methyl-2-oxo-1,2-dihydroquinazolin-3(4H)-yl)-N-(3-methoxy-4-methylphenyl)cyclohexanecarboxamide] it is less than 100 nM.
As for `COc1cc(NC(=O)C[C@H]2C[C@H](N3Cc4c(Br)cccc4C3=O)C2)ccc1C` [Example 187, 2-((1r,3r)-3-(4-Bromo-1-oxoisoindolin-2-yl)cyclobutyl)-N-(3-methoxy-4-methylphenyl)acetamide], the IC50 was greater than 10000 nM.
Consider `COc1cc(NC(=O)[C@H]2CC[C@@H](N3Cc4c(C)cc(OCCN(C)C)cc4OC3=O)CC2)ccc1C` [Example 117, (1s,4s)-4-(7-(2-(dimethylamino)ethoxy)-5-methyl-2-oxo-2H-benzo[e][1,3]oxazin-3(4H)-yl)-N-(3-methoxy-4-methylphenyl)cyclohexane-1-carboxamide], for which the IC50 was in the range of 100 to 1000 nM.
As for `COc1cc(NC(=O)[C@H]2CC[C@@H](N3Cc4c(Br)cncc4C3=O)CC2)ccc1C` [Example 183, (1s,4s)-4-(7-bromo-3-oxo-1H-pyrrolo[3,4-c]pyridin-2(3H)-yl)-N-(3-methoxy-4-methylphenyl)cyclohexanecarboxamide], the IC50 lay within 100 to 1000 nM.
`COc1cc(NC(=O)[C@H]2CC[C@@H](N3Cc4c(Br)cccc4C3=O)CC2)ccc1C` [Example 150, (1s,4s)-4-(4-Bromo-1-oxoisoindolin-2-yl)-N-(3-methoxy-4-methylphenyl)cyclohexanecarboxamide]: the IC50 was in the range of 100 to 1000 nM.
Turning to `Cc1ncc(NC(=O)[C@H]2CC[C@@H](N3Cc4c(C)cccc4C3=O)CC2)s1` [Example 232, (1s,4s)-4-(4-Methyl-1-oxoisoindolin-2-yl)-N-(2-methylthiazol-5-yl)cyclohexanecarboxamide], the IC50 was greater than 10000 nM.
The figure for `COc1cc(NC(=O)N2CCC(N3Cc4ccccc4NC3=O)CC2)ccc1C` [Example 64, N-(3-methoxy-4-methylphenyl)-4-(2-oxo-1,2-dihydroquinazolin-3(4H)-yl)piperidine-1-carboxamide] is 100 to 1000 nM; for `COc1ccc(NC(=O)[C@]2(C)CC[C@H](N3Cc4c(C)cccc4NC3=O)CC2)cc1C` (single isomer, unassigned) [Example 105, (1s,4s)-N-(4-methoxy-3-methylphenyl)-1-methyl-4-(5-methyl-2-oxo-1,2-dihydroquinazolin-3(4H)-yl)cyclohexanecarboxamide] it is less than 100 nM.
`COc1cc(NC(=O)[C@H]2CC[C@@H](N3Cc4c(C)cc(NCC5(O)CNC5)cc4C3=O)CC2)ccc1C` [Example 136, (1s,4s)-4-(6-(((3-hydroxyazetidin-3-yl)methyl)amino)-4-methyl-1-oxoisoindolin-2-yl)-N-(3-methoxy-4-methylphenyl)cyclohexanecarboxamide]: the IC50 is less than 100 nM.
For `COc1cc(NC(=O)[C@H]2CC[C@@H](N3Cc4c(C)cc(C(=O)O)cc4C3=O)CC2)ccc1C` [Example 211, 2-((1s,4s)-4-(3-Methoxy-4-methylphenylcarbamoyl)cyclohexyl)-7-methyl-3-oxoisoindoline-5-carboxylic Acid] the value was 100 to 1000 nM; for `COc1cc(NC(=O)[C@H]2CC[C@@H](N3Cc4c(ccnc4C)NC3=O)CC2)ccc1C` [Example 43, (1s,4s)-N-(3-Methoxy-4-methylphenyl)-4-(5-methyl-2-oxo-1,2-dihydropyrido[4,3-d]pyrimidin-3(4H)-yl)cyclohexanecarboxamide], less than 100 nM.
Regarding `C=Cc1ccc(NC(=O)[C@H]2CC[C@@H](N3Cc4c(C)cccc4C3=O)CC2)cc1OC` [Example 122, (1s,4s)-N-(3-Methoxy-4-vinylphenyl)-4-(4-methyl-1-oxoisoindolin-2-yl)cyclohexane-1-carboxamide], the IC50 lay in the range of 100 to 1000 nM.
